Structures are written as SMILES. Calls of active or inactive are those of the source. The calls are words filed in the database; no cut-off is given here.

Here are results for two molecules from ChEMBL document CHEMBL1150839, “Dihydroagarofuran sesquiterpene alkaloids from Maytenus putterlickoides” (J Nat Prod, 2001).

Data set [1] is described as follows: Inhibition of PKC.
Data set [2] concerns Artemia. As to the kind of experiment: Toxicity in brine shrimp. The class given is organism-based. The following applies: in vivo.

On to `CC(=O)OC[C@]12[C@H](O)[C@H](OC(=O)c3cccnc3)[C@@H]3[C@@H](OC(C)=O)[C@@]14O[C@@]3(C)COC(=O)c1cccnc1[C@@H](C)[C@H](C)C(=O)O[C@@H]([C@H](OC(C)=O)[C@@H]2OC(C)=O)[C@]4(C)O` [PUTTERINE A], for which the inhibition entry in data set [1] is “inactive”. Also, the Activity result in data set [2] was “Toxic”.

In the case of `CC(=O)OC[C@]12[C@H](O)[C@H](OC(=O)c3cccnc3)[C@@H]3[C@@H](OC(C)=O)[C@@]14O[C@@]3(C)COC(=O)c1cccnc1[C@@H](C)[C@H](C)C(=O)O[C@@H]([C@H](OC(=O)C(C)C)[C@@H]2OC(C)=O)[C@]4(C)O` [PUTTERINE B], in data set [1], the inhibition entry was “inactive”. Also, the Activity entry in data set [2] was “Toxic”.
